Article PMC10178848, “Modulating fast skeletal muscle contraction protects skeletal muscle in animal models of Duchenne muscular dystrophy” (The Journal of Clinical Investigation, 2023)

Columns and labels:
[1] = target: T1, porcine ventricular cardiac S1 (Sus scrofa, UniProt P79293); experiment: Actin-activated myosin S1 ATPase, cardiac; format: biochemical
T1 construct: tissue Pel-freez; host or cells: frozen porcine ventricular muscle; myosin extracted and digested with alpha-chymotrypsin
Method: Smooth muscle chicken gizzard S1 was purchased from Cytoskeleton Inc. Other myosin S1 was prepared via published protocols ([21]). Briefly, fresh rabbit psoas and frozen porcine ventricular muscle (Pel-freez) were extracted in 0.3 M KCl, 0.15 M KH2PO4, 1 mM EGTA, 1 mM ATP, 1 mM DTT, pH 6.5, at 4°C. Full-length myosin was purified from each extract via low-ionic precipitations with final precipitation into PM12 buffer (12 mM PIPES, pH 7.0, 2 mM MgCl2). Purified myosin was resuspended in PIPES/EDTA buffer (20 mM PIPES, pH 6.8, 10 mM EDTA, 1 mM DTT) and reacted with 0.2 mg/mL α-chymotrypsin for 30 minutes at room temperature. Proteolysis was quenched with PMSF (final concentration 100 μM), and the reaction was centrifuged for 45 minutes at 230,000g. S1 fragment in the supernatant was dialyzed into PM12 with 0.02% sodium azide and clarified by centrifugation. Sucrose was added to 10% w/v and flash-frozen in liquid N2 and stored at –80°C. […]
A lactate dehydrogenase/pyruvate kinase enzyme-coupled system ([62]) was used to monitor ATP hydrolysis rates in various muscle preparations. […] A multidrop cassette (Thermo Fisher Scientific) dispensed 10 μL of the coupled enzyme system, calcium, and myofibrils to 10 μL ATP, NADH and PEP to initiate the reaction prior to reading on a plate reader (Envision, Perkin Elmer) for 10 minutes per plate at room temperature. […]

mdx mice [2] = experiment: Plasma CK activity in mice; format: in vivo, mouse
Method: Plasma from mice and dogs were analyzed for CK activity using standard protocols (Pointe Scientific, Thermo Fisher Scientific).

mdx mice [3] = experiment: Chronic 8-week dosing in mdx mice (fibrosis, weights, histology); format: in vivo, mouse
Text: C57BL/6 (stock no. 000664), C57BL/10J (stock no. 000665, control for mdx experiments), C57BL/10ScSn-Dmd^mdx/J (mdx, stock no. 001801), and D2.B10 (DBA/2-congenic) Dmd^mdx (DBA/2J mdx, stock no. 013141) mice were from The Jackson Laboratory. Sprague-Dawley rats were purchased from Charles River Laboratories. For ex vivo experiments, mice were 10–16 weeks old. For in situ experiments, mice were 8–14 weeks of age. For in vivo chronic dosing studies, mdx and DBA/2J mdx were 4–5 weeks of age at study start. Dosing was via a 10 mL/kg suspension (1% methyl cellulose, 0.1% Tween 80 in water). For studies in 14-day-old preweaning mice, PO dosing was via syrup suspension (3 mg/kg/d). GRMD were supplied by Texas A&M Department of Veterinary Integrative Biosciences.
For sterile muscle injury, mice were anesthetized with isoflurane and 50 μL cardiotoxin (12 × 10^–6 M, 217503, Millipore) injected in the TA muscle. Muscles 8 days after injury were snap frozen in nitrogen-chilled isopentane. 8 μm cryosections were cut and stained with H&E. For each analysis, more than 10 slides (per condition/group) containing 6 muscle sections/sample were used, and myofibers in the injured area were counted and measured with a Mirax digital scanner and HALO software ([68]). For adult mouse studies, muscles were fixed in 10% formalin and embedded in paraffin for sectioning. Laminin staining (RB-082, Thermo Fisher Scientific) was used to outline fibers, and picrosirius red was used for collagen accumulation. Image analysis was performed using ImarisX64 software (Bitplane AG), and fiber sizing was calculated using minimal Feret’s diameter ([69]). For after weaning juvenile mouse studies, cryosections from soleus muscles were mounted in ProLong antifade mountant with DAPI (Thermo Fisher Scientific). Fiber type, size, and central nucleation were quantified with analysis via SMASH ([70]) and ImageJ (NIH). Antibodies used were mouse anti-MHC2A (1:50, SC-71, Developmental Studies Hybridoma Bank) and mouse anti-eMHC (1:10, BF-45, Developmental Studies Hybridoma Bank).

[4] = tested on: mdx mouse gastrocnemius muscle; experiment: RNA-Seq analysis of gastrocnemius muscle; format: in vivo
Method: RNA-Seq was performed with isolated single nuclei using the 10X Genomics Chromium Single Cell 3’ Protocol, Accessories, and Kits (CG000183 Rev A). Data were then analyzed by Rosalind (https://rosalind.onramp.bio/), with a HyperScale architecture developed by OnRamp BioInformatics Inc. Data have been submitted to the Gene Expression Omnibus (GEO) database at the NIH (accession GSE227510).

[5] = target: T2, ABL1(E255K)-phosphorylated (Homo sapiens, UniProt P00519, E255K); experiment: KINOMEscan scanEDGE; format: binding; conditions: 20 uM
T2 construct: purchased Eurofins DiscoverX (KINOMEscan; SAFETYscan E/IC50 ELECT)

DYRK1B = target: T3, DYRK1B (Homo sapiens, UniProt Q9Y463); experiment: KINOMEscan scanEDGE; format: binding; conditions: 20 uM
T3 construct: purchased Eurofins DiscoverX (KINOMEscan; SAFETYscan E/IC50 ELECT)

ERBB4 = target: T4, ERBB4 (Homo sapiens, UniProt Q15303); experiment: KINOMEscan scanEDGE; format: binding; conditions: 20 uM
T4 construct: purchased Eurofins DiscoverX (KINOMEscan; SAFETYscan E/IC50 ELECT)

MEK1 = target: T5, MEK1 (Homo sapiens, UniProt Q02750); experiment: KINOMEscan scanEDGE; format: binding; conditions: 20 uM
T5 construct: purchased Eurofins DiscoverX (KINOMEscan; SAFETYscan E/IC50 ELECT)

PAK4 = target: T6, PAK4 (Homo sapiens, UniProt O96013); experiment: KINOMEscan scanEDGE; format: binding; conditions: 20 uM
T6 construct: purchased Eurofins DiscoverX (KINOMEscan; SAFETYscan E/IC50 ELECT)

YANK3 = target: T7, YANK3 (Homo sapiens, UniProt Q86UX6); experiment: KINOMEscan scanEDGE; format: binding; conditions: 20 uM
T7 construct: purchased Eurofins DiscoverX (KINOMEscan; SAFETYscan E/IC50 ELECT)

[6] = mdx EDG-5506 3 mg/kg vs mdx Control

T7 sequence (Q86UX6 whole entry): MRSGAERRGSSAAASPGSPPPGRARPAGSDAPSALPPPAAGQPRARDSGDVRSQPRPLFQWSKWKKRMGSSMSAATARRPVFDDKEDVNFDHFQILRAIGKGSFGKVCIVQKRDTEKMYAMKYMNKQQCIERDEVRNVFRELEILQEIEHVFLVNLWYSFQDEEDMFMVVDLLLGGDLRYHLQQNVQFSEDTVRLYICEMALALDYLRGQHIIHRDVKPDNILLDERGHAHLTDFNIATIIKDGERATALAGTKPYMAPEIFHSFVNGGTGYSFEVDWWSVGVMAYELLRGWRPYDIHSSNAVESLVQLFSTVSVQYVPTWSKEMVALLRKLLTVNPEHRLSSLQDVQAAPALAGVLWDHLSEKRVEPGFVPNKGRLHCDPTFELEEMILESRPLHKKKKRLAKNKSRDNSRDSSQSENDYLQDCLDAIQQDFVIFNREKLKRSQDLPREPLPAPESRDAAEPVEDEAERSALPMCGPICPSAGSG
T5 sequence (Q02750 whole entry): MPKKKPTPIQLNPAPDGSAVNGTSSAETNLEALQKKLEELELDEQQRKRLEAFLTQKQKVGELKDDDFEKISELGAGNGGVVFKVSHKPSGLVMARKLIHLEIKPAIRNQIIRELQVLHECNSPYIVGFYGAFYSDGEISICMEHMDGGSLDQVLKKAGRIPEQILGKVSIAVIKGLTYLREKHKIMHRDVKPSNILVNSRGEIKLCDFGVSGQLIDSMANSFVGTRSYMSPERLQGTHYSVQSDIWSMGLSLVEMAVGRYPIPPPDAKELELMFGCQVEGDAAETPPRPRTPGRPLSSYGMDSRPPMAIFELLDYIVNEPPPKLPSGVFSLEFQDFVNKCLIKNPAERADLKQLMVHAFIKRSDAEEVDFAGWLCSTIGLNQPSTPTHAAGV
T2 sequence (P00519 whole entry E255K): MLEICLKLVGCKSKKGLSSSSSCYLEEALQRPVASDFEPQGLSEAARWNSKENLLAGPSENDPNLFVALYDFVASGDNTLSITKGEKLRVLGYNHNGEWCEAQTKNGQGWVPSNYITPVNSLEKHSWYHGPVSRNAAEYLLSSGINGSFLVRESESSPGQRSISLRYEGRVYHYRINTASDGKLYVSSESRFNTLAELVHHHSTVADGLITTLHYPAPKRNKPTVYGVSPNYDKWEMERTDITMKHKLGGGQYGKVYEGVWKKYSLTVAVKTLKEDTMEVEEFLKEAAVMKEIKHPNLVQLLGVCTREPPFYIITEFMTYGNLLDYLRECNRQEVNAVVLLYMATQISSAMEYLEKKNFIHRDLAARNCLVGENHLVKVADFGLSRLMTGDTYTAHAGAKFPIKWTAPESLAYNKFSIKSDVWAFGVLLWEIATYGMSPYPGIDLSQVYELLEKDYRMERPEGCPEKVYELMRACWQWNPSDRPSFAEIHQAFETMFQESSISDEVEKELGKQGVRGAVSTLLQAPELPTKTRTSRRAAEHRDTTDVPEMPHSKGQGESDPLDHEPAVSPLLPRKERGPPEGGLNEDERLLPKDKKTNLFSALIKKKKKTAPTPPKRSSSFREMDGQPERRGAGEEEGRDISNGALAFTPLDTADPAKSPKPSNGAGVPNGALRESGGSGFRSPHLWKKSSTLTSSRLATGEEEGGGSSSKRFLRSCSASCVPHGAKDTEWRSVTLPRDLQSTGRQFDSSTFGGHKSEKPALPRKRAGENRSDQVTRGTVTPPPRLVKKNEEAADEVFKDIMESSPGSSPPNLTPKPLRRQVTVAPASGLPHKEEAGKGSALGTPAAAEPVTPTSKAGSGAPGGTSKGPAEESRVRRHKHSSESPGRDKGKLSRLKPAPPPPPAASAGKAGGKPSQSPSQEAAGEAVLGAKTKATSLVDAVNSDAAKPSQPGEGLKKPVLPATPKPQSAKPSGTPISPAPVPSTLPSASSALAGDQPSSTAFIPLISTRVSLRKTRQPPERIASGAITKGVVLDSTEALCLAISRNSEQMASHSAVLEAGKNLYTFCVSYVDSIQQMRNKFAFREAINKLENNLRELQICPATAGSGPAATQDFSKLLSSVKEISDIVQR
T3 sequence (Q9Y463 whole entry): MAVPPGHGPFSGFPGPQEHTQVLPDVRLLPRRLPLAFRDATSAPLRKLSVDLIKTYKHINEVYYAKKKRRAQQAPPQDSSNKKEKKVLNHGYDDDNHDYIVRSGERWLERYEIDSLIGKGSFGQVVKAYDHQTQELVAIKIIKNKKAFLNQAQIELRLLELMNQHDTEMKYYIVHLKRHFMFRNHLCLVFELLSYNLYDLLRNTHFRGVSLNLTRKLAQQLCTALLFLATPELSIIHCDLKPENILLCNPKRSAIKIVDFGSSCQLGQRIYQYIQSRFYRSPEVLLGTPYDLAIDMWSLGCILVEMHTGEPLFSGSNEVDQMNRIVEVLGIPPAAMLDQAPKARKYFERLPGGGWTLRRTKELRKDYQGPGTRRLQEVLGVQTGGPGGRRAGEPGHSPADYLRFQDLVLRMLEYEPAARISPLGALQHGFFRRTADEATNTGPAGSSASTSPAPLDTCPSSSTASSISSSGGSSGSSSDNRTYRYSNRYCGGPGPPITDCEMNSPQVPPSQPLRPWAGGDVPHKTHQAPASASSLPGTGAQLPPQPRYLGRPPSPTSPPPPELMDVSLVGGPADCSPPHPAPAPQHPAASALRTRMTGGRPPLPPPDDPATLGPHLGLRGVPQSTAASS
T6 sequence (O96013 whole entry): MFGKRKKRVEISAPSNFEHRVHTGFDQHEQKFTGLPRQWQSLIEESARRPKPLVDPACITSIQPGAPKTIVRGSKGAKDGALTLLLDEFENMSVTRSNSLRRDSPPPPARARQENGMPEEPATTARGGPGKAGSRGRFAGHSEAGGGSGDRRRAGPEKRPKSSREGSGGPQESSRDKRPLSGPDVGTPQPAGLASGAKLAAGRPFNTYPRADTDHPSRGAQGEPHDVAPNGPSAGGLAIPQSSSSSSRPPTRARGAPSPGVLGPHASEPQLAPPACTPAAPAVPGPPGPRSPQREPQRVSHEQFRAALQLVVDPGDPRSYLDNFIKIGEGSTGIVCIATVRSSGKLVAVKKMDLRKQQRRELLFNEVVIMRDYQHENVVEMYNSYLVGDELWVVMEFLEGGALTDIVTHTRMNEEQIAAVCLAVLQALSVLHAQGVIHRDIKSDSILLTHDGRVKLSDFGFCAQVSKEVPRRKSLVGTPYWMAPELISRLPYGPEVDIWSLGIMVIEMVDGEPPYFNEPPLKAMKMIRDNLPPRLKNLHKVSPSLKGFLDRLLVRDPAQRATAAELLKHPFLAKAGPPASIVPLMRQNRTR
T1 sequence (P79293 1-808 limits assumed): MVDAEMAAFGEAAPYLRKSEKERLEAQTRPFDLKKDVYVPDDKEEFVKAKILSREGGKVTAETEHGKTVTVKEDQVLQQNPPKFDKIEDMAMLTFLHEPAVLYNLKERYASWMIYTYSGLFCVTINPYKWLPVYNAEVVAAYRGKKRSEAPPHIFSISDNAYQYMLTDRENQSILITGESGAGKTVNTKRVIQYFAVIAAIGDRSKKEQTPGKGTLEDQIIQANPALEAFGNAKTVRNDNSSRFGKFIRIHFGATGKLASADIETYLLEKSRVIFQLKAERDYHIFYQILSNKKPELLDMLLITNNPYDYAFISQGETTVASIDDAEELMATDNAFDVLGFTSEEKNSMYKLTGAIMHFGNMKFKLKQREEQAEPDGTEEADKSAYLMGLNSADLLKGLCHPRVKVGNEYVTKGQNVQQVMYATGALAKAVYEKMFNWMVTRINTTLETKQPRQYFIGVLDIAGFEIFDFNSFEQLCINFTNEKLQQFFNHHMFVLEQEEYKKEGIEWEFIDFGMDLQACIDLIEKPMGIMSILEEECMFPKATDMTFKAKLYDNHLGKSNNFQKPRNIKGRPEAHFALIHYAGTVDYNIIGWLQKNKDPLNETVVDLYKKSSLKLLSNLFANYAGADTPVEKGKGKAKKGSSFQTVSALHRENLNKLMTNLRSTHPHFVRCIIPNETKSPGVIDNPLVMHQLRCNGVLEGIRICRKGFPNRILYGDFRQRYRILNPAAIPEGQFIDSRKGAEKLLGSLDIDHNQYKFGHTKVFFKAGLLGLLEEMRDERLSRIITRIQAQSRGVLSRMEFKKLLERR

## O=c1ccc(-c2cnc(OCC(F)(F)F)nc2)nn1Cc1cncc(F)c1 [EDG-5506]
[1]
  IC50: > 100 µM
Mdx mice [2]; 1 hour after in situ injury
  plasma CK activity after in situ injury: lowered plasma CK activity
Mdx mice [2]; 1 hour after rotarod or grip strength tests
  postexercise plasma CK: significantly lower
Mdx mice [3]; 8 weeks
  body or muscle weight: no effect
Mdx mice [3]; 8 weeks of treatment
  diaphragm fibrosis (collagen, picrosirius red): decreased diaphragm fibrosis
Mdx mice [3]; after 5 weeks of dosing
  average grip strength: increased average grip strength
[4]; mdx EDG-5506 3 mg/kg vs WT
  log2FoldChange Chrng: 0.42
  log2FoldChange Igfn1: 2.931
  log2FoldChange Katnal2: 1.899
  log2FoldChange Myh8: 0.5674
  log2FoldChange Myl4: 1.684
[4]; [6]
  log2FoldChange Chrng: -0.2866
  log2FoldChange Igfn1: -0.9018
  log2FoldChange Katnal2: -0.9377
  log2FoldChange Myh8: -0.538
  log2FoldChange Myl4: -1.31
[4]; mdx mice, 8 weeks
  skeletal muscle transcription profile: returned the skeletal muscle transcription profile closer to that of WT mice
[5]
  binding, % of control: 83 % of control
DYRK1B
  binding, % of control: 100 % of control
ERBB4
  binding, % of control: 93 % of control
MEK1
  binding, % of control: 78 % of control
PAK4
  binding, % of control: 99 % of control
YANK3
  binding, % of control: 88 % of control
